From US20140135310A1, “SULPHONAMIDE DERIVATIVES OF ALICYCLIC AMINES FOR THE TREATMENT OF CENTRAL NERVOUS SYSTEM DISEASES” (Adamed Sp. z o.o., priority 2011, published 2014)

What was measured:
[1] = system: dizocilpine-induced locomotor hyperactivity; test: Dizocilpine (MK-801)-induced locomotor hyperactivity in mice; format: in vivo; settings: reversal of dizocilpine (MK-801)-induced hyperlocomotion, male CD-1 mice, i.p., 30 minutes before the experiment
Protocol: Potential antipsychotic activity was tested for the representative compounds in mouse model of psychosis, involving the induction of locomotor hyperactivity by administering psychotomimetic substance—dizocilpine. The ability of a test compound to remove this effect is a measure of potential antipsychotic activity.
Male CD-1 mice were group-housed for 2-3 day period in polycarbonate Makrolon type 3 cages (dimensions 26.5×15×42 cm) in an environmentally controlled, experimental room (ambient temperature 22-20° C.; relative humidity 50-60%; 12:12 light:dark cycle, lights on at 8:00), in groups of 15. Standard laboratory food (Ssniff M-Z) and filtered water were freely available. On the day before experiments the equipment produced “white noise” was turned on for 30 minutes and mice were weighted exact to 1 g. Animals were assigned randomly to treatment groups. All the experiments were performed by two observers unaware of the treatment applied between 9:00 and 14:00 on separate groups of animals. Mice were used only once and were killed immediately after the experiment.
The locomotor activity was recorded with an Opto M3 multi-channel activity monitor (MuttiDevice Software v.1.3, Columbus Instruments). The mice were individually placed in plastic cages (22×12×13 cm) for 30 minutes habituation period, and then the crossings of each channel (ambulation) were counted during 1 h with data recording every 5 minutes. The cages were cleaned up with 70% ethanol after examining each mouse. Drugs were administered to 10 mice per treatment group. Test compounds were given 30 minutes before the experiment. Dizocilpine was administered 30 minutes before the test.
Test compounds were prepared as a suspension in 1% aqueous solution of Tween 80, and dizocilpine was dissolved in distilled water immediately before administration. An injection volume of 10 ml/kg was used and all compounds were administered intraperitoneally (i.p.).

[2] = target: T1, hERG potassium channels (KCNH2 gene, expressed in CHO cells) (Homo sapiens, UniProt Q12809); test: Ability to block hERG potassium channel (electrophysiology, IonWorks Quattro); format: cell-based; settings: % block of hERG current, test compound 1×10^−5 M
T1 construct: expressed in transfected cells; host or cells: CHO cells
T1 sequence (Q12809 whole entry): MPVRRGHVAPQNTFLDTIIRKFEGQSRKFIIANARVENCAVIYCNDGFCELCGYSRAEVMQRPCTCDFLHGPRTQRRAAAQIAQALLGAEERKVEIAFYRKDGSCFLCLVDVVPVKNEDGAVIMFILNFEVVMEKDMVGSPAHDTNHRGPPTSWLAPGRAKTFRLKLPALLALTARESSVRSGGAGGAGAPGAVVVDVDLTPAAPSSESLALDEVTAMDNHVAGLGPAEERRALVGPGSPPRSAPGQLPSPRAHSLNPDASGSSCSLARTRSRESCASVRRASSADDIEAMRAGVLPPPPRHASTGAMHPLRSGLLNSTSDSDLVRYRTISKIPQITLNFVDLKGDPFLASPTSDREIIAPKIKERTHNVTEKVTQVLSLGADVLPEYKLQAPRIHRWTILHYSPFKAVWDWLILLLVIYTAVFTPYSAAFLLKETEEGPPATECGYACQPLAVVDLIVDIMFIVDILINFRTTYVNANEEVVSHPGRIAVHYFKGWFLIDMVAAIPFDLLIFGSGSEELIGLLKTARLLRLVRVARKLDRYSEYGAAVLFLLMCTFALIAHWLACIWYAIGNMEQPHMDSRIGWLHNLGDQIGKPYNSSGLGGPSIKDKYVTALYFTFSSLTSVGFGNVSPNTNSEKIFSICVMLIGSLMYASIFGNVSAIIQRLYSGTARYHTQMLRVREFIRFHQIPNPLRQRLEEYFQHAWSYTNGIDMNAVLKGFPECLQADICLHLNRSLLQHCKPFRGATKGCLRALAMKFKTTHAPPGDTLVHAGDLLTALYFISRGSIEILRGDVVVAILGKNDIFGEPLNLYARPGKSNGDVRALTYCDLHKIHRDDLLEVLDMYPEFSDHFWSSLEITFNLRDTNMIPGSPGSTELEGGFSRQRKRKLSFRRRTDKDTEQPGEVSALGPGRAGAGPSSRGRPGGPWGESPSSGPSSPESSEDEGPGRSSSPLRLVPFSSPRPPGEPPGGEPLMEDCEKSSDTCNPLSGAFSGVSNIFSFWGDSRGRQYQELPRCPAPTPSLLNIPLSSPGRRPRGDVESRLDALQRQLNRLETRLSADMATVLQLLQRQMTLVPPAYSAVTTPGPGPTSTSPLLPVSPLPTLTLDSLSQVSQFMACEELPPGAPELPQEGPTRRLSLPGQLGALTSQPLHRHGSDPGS
Protocol: Moreover, the ability of the compounds of the invention to block potassium channel hERG was tested.
Ability to block hERG potassium channels was determined using the electrophysiological method and cloned hERG potassium channels (KCNH2 gene, expressed in CHO cells) as biological material. The effects were evaluated using IonWorks™ Quattro system (MDS-AT).
hERG current was elicited using a pulse pattern with fixed amplitudes (conditioning pre-pulse: −80 mV for 25 ms; test pulse: +40 mV for 80 ms) from a holding potential of 0 mV. hERG current was measured as a difference between the peak current at 1 ms after the test step to +40 mV and the steady-state current at the end of the step to +40 mV.
Data acquisition and analyses was performed using the IonWorks Quattro™ system operation software (version 2.0.2; Molecular Devices Corporation, Union City, Calif.). Data were corrected for leak current.
The hERG block was calculated as:
% Block=(1−ITA/IControl)×100%,
where IControl and ITA were the currents elicited by the test pulse in control and in the presence of a test article, respectively.
Concentration-response data for the blocks were fit to an equation of the following form:
% Block=% VC+{(% PC−% VC)−(% PC−% VC)/[1+([Test]/IC50)N]},

[3] = target: T2, 5-HT reuptake (rat brain synaptosomes) (Rattus norvegicus, UniProt P31652); test: 5-HT reuptake, [3H]5-HT incorporation into rat brain synaptosomes; format: biochemical; settings: 15 min/37° C., read-out: SERT IC50
T2 construct: measuring [^3H]5-HT incorporation into rat brain synaptosomes; from tissue; host or cells: rat brain synaptosomes
T2 sequence (P31652 whole entry): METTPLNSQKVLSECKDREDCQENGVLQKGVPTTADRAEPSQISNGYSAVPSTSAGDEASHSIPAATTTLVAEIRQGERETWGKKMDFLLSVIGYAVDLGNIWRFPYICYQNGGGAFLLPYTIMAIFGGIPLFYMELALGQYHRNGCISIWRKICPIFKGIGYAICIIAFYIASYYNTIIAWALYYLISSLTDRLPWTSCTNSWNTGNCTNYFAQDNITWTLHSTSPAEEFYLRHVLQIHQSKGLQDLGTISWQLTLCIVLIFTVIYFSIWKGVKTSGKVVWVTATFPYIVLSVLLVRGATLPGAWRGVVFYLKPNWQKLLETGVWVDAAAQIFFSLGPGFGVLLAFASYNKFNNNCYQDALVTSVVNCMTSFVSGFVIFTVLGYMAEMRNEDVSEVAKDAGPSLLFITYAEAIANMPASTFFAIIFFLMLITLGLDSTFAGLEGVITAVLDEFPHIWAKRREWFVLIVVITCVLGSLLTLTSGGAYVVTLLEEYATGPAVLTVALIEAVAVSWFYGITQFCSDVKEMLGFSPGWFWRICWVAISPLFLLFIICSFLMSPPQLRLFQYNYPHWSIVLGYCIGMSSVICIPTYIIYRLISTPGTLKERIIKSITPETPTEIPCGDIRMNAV
Protocol: 5-HT reuptake was tested according to Perovic, S. and Muller, W.E.G. (1995) Arzneim-Forsch. Drug Res., 45: 1145-1148 by measuring [^3H]5-HT incorporation into rat brain synaptosomes. Assay conditions are as follows:
Tracer: [^3H]5-HT (0.2 μCi/ml)
Incubation: 15 min/37° C.

| Compound | MED* [mg/kg] (minimum effective dose) [1] | hERG [%] [2] | IC50 [3] |
| --- | --- | --- | --- |
| O=S(=O)(N[C@@H]1CCN(CCCc2noc3cc(F)ccc23)C1)c1cc2ccccc2s1 [Compound 196, N-[(3R)-1-[3-(6-Fluoro-1,2-benzoxazol-3-yl)propyl]pyrrolidin-3-yl]benzo-thiophene-2-sulphonamide] | 2.5 mg/kg | – | – |
| O=S(=O)(NC1CCN(CCCc2noc3cc(F)ccc23)CC1)c1cccc2ccccc12 [Compound 34, N-[1-[3-(6-Fluoro-1,2-benzoxazol-3-yl)propyl]-4-piperidine]-naphthalene-1-sulphonamide] | – | −1.1% | – |
| O=S(=O)(NC1CCN(CCCc2c[nH]c3ccc(F)cc23)C1)c1ccc2ccccc2c1 (stereo not shown) [Compound 80, N-[1-[3-(5-Fluoro-1H-indol-3-yl)propyl]pyrrolidin-3-yl]naphthalene-2-sulphonamide] | – | – | 2.1 nM |
| O=S(=O)(NC1CCN(CCCc2noc3cc(F)ccc23)C1)c1cc2ccccc2s1 (stereo not shown) [Compound 25, N-[1-[3-(6-Fluoro-1,2-benzoxazol-3-yl)propyl]pyrrolidin-3-yl]-benzothiophene-2-sulphonamide] | 5 mg/kg | 2.9% | – |
| O=S(=O)(NC1CCN(CCCc2c[nH]c3ccc(Cl)cc23)C1)c1cccc(Cl)c1 (stereo not shown) [Compound 84, 3-Chloro-N-[1-[3-(5-chloro-1H-indol-3-yl)propyl]pyrrolidin-3-yl]benzenesulphonamide] | – | – | 64 nM |
| O=S(=O)(NC1CN(CCOc2cccc3c2OCCO3)C1)c1cccc2ccccc12 [Compound 94, N-[1-[2-(2,3-Dihydro-1,4-benzodioxan-8-yloxy)ethyl]azetidin-3-yl]-naphthalene-1-sulphonamide] | – | 4.8% | – |
| O=S(=O)(NC1CCN(CCCc2noc3cc(F)ccc23)C1)c1ccc2ccccc2c1 (stereo not shown) [Compound 21, N-[1-[3-(6-Fluoro-1,2-benzoxazol-3-yl)propyl]pyrrolidin-3-yl]naphthalene-2-sulphonamide] | 10 mg/kg | 3.3% | – |
| O=S(=O)(NC1CCN(CCCc2noc3cc(F)ccc23)C1)c1csc2ccccc12 (stereo not shown) [Compound 26, N-[1-[3-(6-Fluoro-1,2-benzoxazol-3-yl)propyl]pyrrolidin-3-yl]-benzothiophene-3-sulphonamide] | – | 6.1% | – |
